Data: patent publication US8604085B2, “Bupropion hydrobromide polymorphs” (Valeant International Bermuda, priority 2008, dated 2013)

Legend:
Assay type in all cases: physicochemical
[1] = Precipitation from oversaturated solution at 100° C., cooling rate 0.45° C./min
Experimental: Bupropion hydrobromide Form I was dissolved at 100° C. in solvent to obtain the oversaturated solution. The cooling rate applied was 0.45° C./min. The samples were filtered and analyzed by X-ray diffraction. Form I converts into Form VI using 1-Propanol, and into Form V using 1,4-Dioxane. The other experiments yield only Form I. See Table 55 for Form I precipitation results by oversaturated solution. […]

[2] = Release of bupropion base from the salt
Experimental: It was previously observed that when 150 mg of bupropion HCl was tested for its release of bupropion, the base value that was released was 130 mg. However, when 150 mg of bupropion HBr was tested, the base value released was only 112 mg. Thus, the amount of bupropion HBr had to be increased in order to increase the base value from 112 mg to 130 mg, which was the target.

[3] = Forced degradation studies of the API's in the presence of standard excipients; settings: with standard excipients; about 24 and about 48 hours at about 55° C., about 55° C. and 100% relative humidity, about 105° C.
Experimental: Forced degradation studies were also performed on bupropion hydrobromide and bupropion hydrochloride API's in the presence of standard excipients used in pharmaceutical formulations.

SMILES	Precipitation Result ([1]; solvent 1,4-Dioxane)	Precipitation Result ([1]; solvent 1-Butanol)	Precipitation Result ([1]; solvent 1-Methyl-2-Pyrrolidone)	Precipitation Result ([1]; solvent 1-Propanol)	Precipitation Result ([1]; solvent 2-Methoxy Ethanol)	Precipitation Result ([1]; solvent 2-Methyl-1-Propanol)	Precipitation Result ([1]; solvent (±)2-Butanol)	Precipitation Result ([1]; solvent Dimethyl formamide)	Precipitation Result ([1]; solvent Dimethyl sulfoxyde)	Precipitation Result ([1]; solvent Nitromethane)	Precipitation Result ([1]; solvent Water)	Precipitation Result ([1]; solvent p-Xylene)	base value that was released ([2]; 150 mg of the salt tested) [mg]	base value that was released ([2]; 174 mg of the salt tested) [mg]	amount of degradation (bupropion degradation impurities) versus bupropion hydrochloride [3]
Br.CC(NC(C)(C)C)C(=O)c1cccc(Cl)c1 (single isomer, unassigned) [Form I]	Form V	Form I	Form I	Form VI	Form I	Form I	Form I	Form I	Form I	Form I	Form I	Form I			
Br.CC(NC(C)(C)C)C(=O)c1cccc(Cl)c1 (stereo not drawn) [Bupropion hydrobromide, 3′-chloro-2-t-butylamino-1-propiophenone hydrobromide]													112	130	lowest amount of degradation
